In patent US10414811B2, “Protease-resistant lipidated GLP-1 analogs” (MEDIMMUNE LIMITED, priority 2015, dated 2019):
Like-named read-outs stand apart in the source and are kept apart here. Numbered stars: 1 amine (or outer) side, 2 acyl side, 3 side chain; on linkers, the order of the positions; unused ones are H or OH. Square brackets hold non-standard residues; d marks the D form. Side chains are listed from the residue outwards. Peptide text beside a SMILES is read from it. * marks the point of attachment. γGlu = O=C(O)[C@H](CCC(=O)[*:2])N[*:1]; αMeF = C[C@](N)(Cc1ccccc1)C(=O)O; αMeK = C[C@](N)(CCCCN)C(=O)O; Lauroyl = CCCCCCCCCCCC(=O)*; αMeS = C[C@](N)(CO)C(=O)O; AEEA = NCCOCCOCC(=O)O; Aib = CC(C)(N)C(=O)O

Legend:
Format in all cases: cell-based
Conditions in all cases: tris-lipidated peptides
[1] = target: T1, human GLP-1 receptor (GLP-1R) (Homo sapiens, UniProt P43220); test: cAMP assay, human GLP-1R cells
T1 construct: expressed in transfected cells
T1 sequence (P43220 24-463): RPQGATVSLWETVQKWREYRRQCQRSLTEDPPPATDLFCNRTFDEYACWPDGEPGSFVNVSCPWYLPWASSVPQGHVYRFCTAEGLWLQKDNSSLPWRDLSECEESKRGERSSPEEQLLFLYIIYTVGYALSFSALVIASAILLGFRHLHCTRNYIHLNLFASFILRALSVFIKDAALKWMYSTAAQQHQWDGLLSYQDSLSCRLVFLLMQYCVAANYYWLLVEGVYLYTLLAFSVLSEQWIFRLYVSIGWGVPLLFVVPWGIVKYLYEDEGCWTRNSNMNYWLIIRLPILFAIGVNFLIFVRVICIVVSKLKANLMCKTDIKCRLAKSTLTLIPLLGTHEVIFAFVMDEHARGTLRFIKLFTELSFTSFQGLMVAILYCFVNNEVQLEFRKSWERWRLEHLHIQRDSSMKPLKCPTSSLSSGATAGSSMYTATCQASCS
How it was run: (§1)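 Peptide-stimulated cAMP measured by two-step HTRF after a 30 min room-temperature incubation with receptor-expressing cells (hGLP-1R, hGIPR at 1×10^5 cells/ml; hGCGR at 2×10^5 cells/ml). Duplicate dilutions; EC50 from 4-parameter logistic fit of % Delta F.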

[2] = target: T2, human glucagon receptor (GCGR) (Homo sapiens, UniProt P47871); test: cAMP assay, human GCGR cells
T2 construct: expressed in transfected cells
T2 sequence (P47871 26-477): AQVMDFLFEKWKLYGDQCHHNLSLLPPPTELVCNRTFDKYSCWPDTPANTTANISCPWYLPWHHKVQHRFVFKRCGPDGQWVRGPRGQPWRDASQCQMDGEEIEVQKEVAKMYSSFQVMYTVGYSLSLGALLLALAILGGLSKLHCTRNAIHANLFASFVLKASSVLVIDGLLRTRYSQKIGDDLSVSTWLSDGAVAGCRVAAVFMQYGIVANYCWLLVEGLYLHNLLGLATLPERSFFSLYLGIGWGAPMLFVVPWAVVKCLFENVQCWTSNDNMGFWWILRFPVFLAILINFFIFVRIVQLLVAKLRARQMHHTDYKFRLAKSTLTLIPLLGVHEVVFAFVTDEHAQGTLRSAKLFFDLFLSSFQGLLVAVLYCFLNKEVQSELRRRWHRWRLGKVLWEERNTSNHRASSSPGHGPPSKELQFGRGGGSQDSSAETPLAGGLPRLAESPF
How it was run: as §1

[3] = target: T3, human glucose-dependent insulinotropic peptide receptor (GIPR) (Homo sapiens, UniProt P48546); test: cAMP assay, human GIPR cells
T3 construct: expressed in transfected cells
T3 sequence (P48546 22-466): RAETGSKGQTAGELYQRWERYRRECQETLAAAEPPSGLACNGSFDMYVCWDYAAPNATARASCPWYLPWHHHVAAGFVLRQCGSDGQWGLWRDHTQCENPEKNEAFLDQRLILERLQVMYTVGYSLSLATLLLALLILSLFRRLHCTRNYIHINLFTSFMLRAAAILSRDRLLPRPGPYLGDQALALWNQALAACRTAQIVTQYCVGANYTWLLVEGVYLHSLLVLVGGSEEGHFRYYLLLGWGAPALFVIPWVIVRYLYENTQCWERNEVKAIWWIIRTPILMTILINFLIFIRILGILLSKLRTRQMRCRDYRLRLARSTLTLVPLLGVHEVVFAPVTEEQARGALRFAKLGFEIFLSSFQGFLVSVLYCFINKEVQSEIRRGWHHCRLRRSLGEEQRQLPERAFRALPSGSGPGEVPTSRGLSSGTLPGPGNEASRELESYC
How it was run: as §1

GLP-1R (INS1e assay) = target: T4, GLP-1R (INS1e assay) (Rattus norvegicus, UniProt P32301); test: INS1e assay, cAMP activity at GLP-1R
T4 construct: endogenous in cells; host or cells: INS-1E cells
T4 sequence (P32301 22-463): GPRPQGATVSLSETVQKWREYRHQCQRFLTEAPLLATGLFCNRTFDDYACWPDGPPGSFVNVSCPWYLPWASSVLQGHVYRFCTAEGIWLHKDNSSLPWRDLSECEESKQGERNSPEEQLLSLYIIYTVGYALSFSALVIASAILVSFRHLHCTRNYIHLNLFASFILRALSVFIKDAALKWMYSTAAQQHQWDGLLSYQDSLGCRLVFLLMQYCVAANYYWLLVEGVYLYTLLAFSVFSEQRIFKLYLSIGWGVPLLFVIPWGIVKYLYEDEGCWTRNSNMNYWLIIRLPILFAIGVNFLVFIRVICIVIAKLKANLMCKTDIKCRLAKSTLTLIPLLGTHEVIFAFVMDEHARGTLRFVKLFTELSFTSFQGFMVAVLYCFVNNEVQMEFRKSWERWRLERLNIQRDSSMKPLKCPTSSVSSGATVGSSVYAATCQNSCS
How it was run: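 cAMP was quantified by two-step HTRF, using anti-cAMP cryptate donor and cAMP-d2 acceptor, each diluted 1/20 in conjugate and lysis buffer. EC50 values of the synthetic peptides were derived from the cAMP readout.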

[4] = mean of n1 and n2, read-out: Primary assay EC50 Mean pM GLP-1R
[5] = replicate n1, read-out: Primary assay EC50 GLP-1R n1
[6] = replicate n2, read-out: Primary assay EC50 GLP-1R n2
[7] = second replicate, read-out: Primary assay EC50 Gluc-R (n2)
[8] = second replicate, read-out: Primary assay EC50 GIP-R (n2)
[9] = mean of n1 and n2, read-out: INS1e assay EC50 Mean pM GLP-1R
[10] = replicate n1, read-out: INS1e assay EC50 GLP-1R n1
[11] = replicate n2, read-out: INS1e assay EC50 GLP-1R n2

EC50 [1, 4] [pM] | EC50 [1, 5] [pM] | EC50 [1, 6] [pM] | EC50 [2, 7] [nM] | EC50 [3, 8] [nM] | EC50 (GLP-1R (INS1e assay); [9]) [pM] | EC50 (GLP-1R (INS1e assay); [10]) [pM] | EC50 (GLP-1R (INS1e assay); [11]) [pM] | EC50 ([2]; first replicate, read-out: Primary assay EC50 Gluc-R (n1)) [nM] | EC50 ([3]; first replicate, read-out: Primary assay EC50 GIP-R (n1)) [nM] | Structure (SMILES)
55.4 | 49.3 | 61.5 | 19.8 | 19.8 | 8920 | 9920 | 7910 | – | – | CCCCCCCCCCCC(=O)N[C@@H](CCC(=O)NCCOCCOCC(=O)NCCOCCOCC(=O)NCCCC[C@H](NC(=O)[C@H](C)NC(=O)[C@@H](NC(=O)[C@H](Cc1ccccc1)NC(=O)[C@H](CCC(=O)O)NC(=O)[C@](C)(CCCCN)NC(=O)[C@H](C)NC(=O)[C@H](C)NC(=O)[C@H](CCC(=O)O)NC(=O)[C@H](CCCCNC(=O)COCCOCCNC(=O)COCCOCCNC(=O)CC[C@H](NC(=O)CCCCCCCCCCC)C(=O)O)NC(=O)[C@H](CCC(=O)O)NC(=O)[C@H](CCCCNC(=O)COCCOCCNC(=O)COCCOCCNC(=O)CC[C@H](NC(=O)CCCCCCCCCCC)C(=O)O)NC(=O)[C@H](Cc1ccc(O)cc1)NC(=O)[C@H](CO)NC(=O)[C@](C)(CO)NC(=O)[C@@H](NC(=O)[C@H](CC(=O)O)NC(=O)[C@H](CO)NC(=O)[C@@H](NC(=O)[C@](C)(Cc1ccccc1)NC(=O)[C@H](CO)NC(=O)CNC(=O)[C@H](CCC(=O)O)NC(=O)C(C)(C)NC(=O)[C@@H](N)Cc1c[nH]cn1)[C@@H](C)O)C(C)C)[C@@H](C)CC)C(=O)N[C@H](C(=O)N[C@H](C(=O)N[C@@H](CCC(=O)O)C(=O)NCC(=O)NCC(N)=O)C(C)C)C(C)C)C(=O)O [compound 467] (H-H[Aib]EGS[αMeF]TSDV[αMeS]SYK([AEEA-AEEA-γGlu-Lauroyl])EK([AEEA-AEEA-γGlu-Lauroyl])EAA[αMeK]EFIAK([AEEA-AEEA-γGlu-Lauroyl])VVEGG-NH2; N-terminus assumed)
45.4 | 41.8 | 49 | 19.8 | 19.8 | 4900 | 6900 | 2890 | – | – | CCCCCCCCCCCC(=O)N[C@@H](CCC(=O)NCCOCCOCC(=O)NCCOCCOCC(=O)NCCCC[C@H](NC(=O)[C@H](C)NC(=O)[C@@H](NC(=O)[C@H](Cc1ccccc1)NC(=O)[C@H](CCC(=O)O)NC(=O)[C@](C)(CCCCN)NC(=O)[C@H](C)NC(=O)[C@H](CCCCNC(=O)COCCOCCNC(=O)COCCOCCNC(=O)CC[C@H](NC(=O)CCCCCCCCCCC)C(=O)O)NC(=O)[C@H](CCC(=O)O)NC(=O)CNC(=O)[C@H](CCC(=O)O)NC(=O)[C@H](CCCCNC(=O)COCCOCCNC(=O)COCCOCCNC(=O)CC[C@H](NC(=O)CCCCCCCCCCC)C(=O)O)NC(=O)[C@H](Cc1ccc(O)cc1)NC(=O)[C@H](CO)NC(=O)[C@](C)(CO)NC(=O)[C@@H](NC(=O)[C@H](CC(=O)O)NC(=O)[C@H](CO)NC(=O)[C@@H](NC(=O)[C@](C)(Cc1ccccc1)NC(=O)[C@H](CO)NC(=O)CNC(=O)[C@H](CCC(=O)O)NC(=O)C(C)(C)NC(=O)[C@@H](N)Cc1c[nH]cn1)[C@@H](C)O)C(C)C)[C@@H](C)CC)C(=O)N[C@H](C(=O)N[C@H](C(=O)N[C@@H](CCC(=O)O)C(=O)NCC(=O)NCC(N)=O)C(C)C)C(C)C)C(=O)O [compound 469] (H-H[Aib]EGS[αMeF]TSDV[αMeS]SYK([AEEA-AEEA-γGlu-Lauroyl])EGEK([AEEA-AEEA-γGlu-Lauroyl])A[αMeK]EFIAK([AEEA-AEEA-γGlu-Lauroyl])VVEGG-NH2; N-terminus assumed)
36.3 | 28.3 | 44.2 | – | – | 5860 | 8570 | 3150 | 20 | 20 | CCCCCCCCCCCC(=O)N[C@@H](CCC(=O)NCCOCCOCC(=O)NCCOCCOCC(=O)NCCCC[C@H](NC(=O)[C@H](CO)NC(=O)[C@](C)(CO)NC(=O)[C@@H](NC(=O)[C@H](CC(=O)O)NC(=O)[C@H](CO)NC(=O)[C@@H](NC(=O)[C@](C)(Cc1ccccc1)NC(=O)[C@H](CO)NC(=O)CNC(=O)[C@H](CCC(=O)O)NC(=O)C(C)(C)NC(=O)[C@@H](N)Cc1c[nH]cn1)[C@@H](C)O)C(C)C)C(=O)N[C@@H](CC(C)C)C(=O)N[C@@H](CCC(=O)O)C(=O)NCC(=O)N[C@@H](CCC(=O)O)C(=O)N[C@@H](C)C(=O)N[C@@H](C)C(=O)N[C@@](C)(CCCCN)C(=O)N[C@@H](CCCCNC(=O)COCCOCCNC(=O)COCCOCCNC(=O)CC[C@H](NC(=O)CCCCCCCCCCC)C(=O)O)C(=O)N[C@@H](Cc1ccccc1)C(=O)N[C@H](C(=O)N[C@@H](C)C(=O)N[C@@H](Cc1ccccc1)C(=O)N[C@@H](CCCCNC(=O)COCCOCCNC(=O)COCCOCCNC(=O)CC[C@H](NC(=O)CCCCCCCCCCC)C(=O)O)C(=O)N[C@H](C(=O)N[C@@H](CCC(=O)O)C(=O)NCC(=O)NCC(N)=O)C(C)C)[C@@H](C)CC)C(=O)O [compound 482] (H-H[Aib]EGS[αMeF]TSDV[αMeS]SK([AEEA-AEEA-γGlu-Lauroyl])LEGEAA[αMeK]K([AEEA-AEEA-γGlu-Lauroyl])FIAFK([AEEA-AEEA-γGlu-Lauroyl])VEGG-NH2)
